{"source": "patent US5780250A", "about": "“Immunoassay standards for polyaromatic hydrocarbon detection” (Strategic Diagnostics, Inc., priority 1996, dated 1998)", "key": {"[1]": {"system": "rabbit anti-PAH antisera (anti-analyte antibody on paramagnetic particles)", "conditions": "for 50% B/Bo: concentration giving mean absorbance 0.5 times that of the Diluent/Zero Standard, competitive immunoassay, 450 nm; for LDD (least detectable dose): estimated as the dose needed to generate a B/Bo of 90%"}, "[2]": {"experiment": "Study of Standard Stability (B/Bo as a function of time of storage)", "conditions": "after 200 days of storage at 4° C. (FIG. 2)", "experimental": "The vials were then capped with Teflon coated caps and crimped. The vials were then separated into five groups. Each group was then placed at a different temperature (-20° C., 2°-8° C., 20°-25° C., 37° C. and 50° C.) in an upright position. Standards were tested for B/Bo at specified intervals by assaying each standard level in duplicate for each temperature. The results were then graphed as a function of time (x) versus B/Bo(y) by temperature level."}}}
{"smiles": "c1ccc2cc3c(ccc4ccccc43)cc2c1", "note": "[1,2 benzoanthracene]", "values": [{"measurement": "50% B/Bo", "setting": "[1]", "value": 28.4, "unit": "ppb"}, {"measurement": "LDD (least detectable dose)", "setting": "[1]", "value": 0.77, "unit": "ppb"}]}
{"smiles": "c1ccc2cc3ccccc3cc2c1", "note": "[anthracene]", "values": [{"measurement": "50% B/Bo", "setting": "[1]", "value": 11.0, "unit": "ppb"}, {"measurement": "LDD (least detectable dose)", "setting": "[1]", "value": 0.54, "unit": "ppb"}]}
{"smiles": "c1ccc2c(c1)cc1ccc3cccc4ccc2c1c34", "note": "[benzo(a)pyrene]", "values": [{"measurement": "50% B/Bo", "setting": "[1]", "value": 6.9, "unit": "ppb"}, {"measurement": "LDD (least detectable dose)", "setting": "[1]", "value": 0.50, "unit": "ppb"}]}
{"smiles": "c1ccc2c(c1)-c1cccc3c1c-2cc1ccccc13", "note": "[benzo(b)fluoranthene]", "values": [{"measurement": "50% B/Bo", "setting": "[1]", "value": 54.2, "unit": "ppb"}, {"measurement": "LDD (least detectable dose)", "setting": "[1]", "value": 0.91, "unit": "ppb"}]}
{"smiles": "c1ccc2cc3c(cc2c1)-c1cccc2cccc-3c12", "note": "[benzo(k)fluoranthene]", "values": [{"measurement": "50% B/Bo", "setting": "[1]", "value": 524, "unit": "ppb"}, {"measurement": "LDD (least detectable dose)", "setting": "[1]", "value": 0.77, "unit": "ppb"}]}
{"smiles": "c1ccc2c(c1)ccc1c3ccccc3ccc21", "note": "[chrysene]", "values": [{"measurement": "50% B/Bo", "setting": "[1]", "value": 7.8, "unit": "ppb"}, {"measurement": "LDD (least detectable dose)", "setting": "[1]", "value": 0.40, "unit": "ppb"}]}
{"smiles": "c1ccc2c(c1)-c1cccc3cccc-2c13", "note": "[fluoranthene]", "values": [{"measurement": "50% B/Bo", "setting": "[1]", "value": 4.7, "unit": "ppb"}, {"measurement": "LDD (least detectable dose)", "setting": "[1]", "value": 0.32, "unit": "ppb"}]}
{"smiles": "c1ccc2c(c1)Cc1ccccc1-2", "note": "[fluorene]", "values": [{"measurement": "50% B/Bo", "setting": "[1]", "value": 35.2, "unit": "ppb"}, {"measurement": "LDD (least detectable dose)", "setting": "[1]", "value": 1.65, "unit": "ppb"}]}
{"smiles": "c1ccc2c(c1)-c1ccc3ccc4cccc5cc-2c1c3c45", "note": "[indeno(1,2,3-c,d)pyrene]", "values": [{"measurement": "50% B/Bo", "setting": "[1]", "value": 27.2, "unit": "ppb"}, {"measurement": "LDD (least detectable dose)", "setting": "[1]", "value": 0.78, "unit": "ppb"}]}
{"smiles": "c1ccc2c(c1)ccc1ccccc12", "note": "[phenanthrene, reference compound]", "values": [{"measurement": "50% B/Bo", "setting": "[1]", "value": 16.5, "unit": "ppb"}, {"measurement": "LDD (least detectable dose)", "setting": "[1]", "value": 0.70, "unit": "ppb"}, {"measurement": "apparent increase in B/Bo on storage", "setting": "[2]", "value": 25, "unit": "%"}]}
{"smiles": "c1cc2ccc3cccc4ccc(c1)c2c34", "note": "[pyrene]", "values": [{"measurement": "50% B/Bo", "setting": "[1]", "value": 7.7, "unit": "ppb"}, {"measurement": "LDD (least detectable dose)", "setting": "[1]", "value": 0.20, "unit": "ppb"}]}
